Results as given in publication PMC11217935, “Facile Halogenation of Antimicrobial Peptides As Demonstrated by Producing Bromotryptophan-Labeled Nisin Variants with Enhanced Antimicrobial Activity” (Journal of Natural Products, 2024).
In brackets after ≈: the same amount, converted by molar mass.

How the values were obtained:
[1] = system: Lactococcus lactis MG1363; assay type: cell-based; details: for fold decrease in activity: L. lactis (MG1363), from MIC values, I1W compared with nisin, analogue-labelled variants by the numbers compared with Trp variant
Protocol: (§1) MIC values were determined using broth microdilution according to standard guidelines.[42] The inoculum was adjusted to approximately 5 × 10^5 CFU/mL, and the MIC was defined as the lowest concentration of antimicrobial compound with no visible growth after overnight incubation at 37 °C (or at 30 °C for L. lactis strain).

Bacillus cereus CH-85 = assay: MIC, broth microdilution; assay type: cell-based; details: one of two tested pathogens (B. cereus CH-85); compared with wild-type nisin
Protocol: as §1

[2] = system: Staphylococcus aureus LMG15975 (MRSA); assay: MIC, broth microdilution; assay type: cell-based; details: one of two tested pathogens (S. aureus LMG15975 MRSA), WHO priority pathogen; compared with wild-type nisin
Protocol: as §1

[3] = Spot-on-lawn assay to test lipid II binding; assay type: cell-based, Bacillus cereus; details: B. cereus CH-85 lawn on LB agar; lipid II (600 μM, 2 μL per Figure 6; 0.8 mol/L, 2 μL per method) spotted at edge of halo; overnight 37 °C; preliminary results
Protocol: A 0.1% (v/v) inoculum of B. cereus CH-85 from an overnight culture was added to 1.5% (w/v) LB agar at 45 °C, and 10 mL of the mixture was poured onto a plate. The binding of the peptide to lipid II was evaluated by spotting purified lipid II ([…], 2 μL)[38],[41] at the edge of the 0.2 mg antibiotic inhibition halo. Specifically, 5 μL of the antibiotic was loaded onto the agar plate, and after drying, the lipid II solution was spotted at the edge of the inhibition halo. The plate was then incubated overnight at 37 °C.

B. cereus CH-85 = assay: Time-kill assay; assay type: cell-based, Bacillus cereus; details: within 3 h, 5 × 10^5 cells per mL, 37 °C, triplicate
Protocol: The antimicrobial activity of nisin and its brominated variants was evaluated against B. cereus CH-85 using a previously described procedure.[38],[41] Briefly, an overnight culture of B. cereus was diluted 50-fold in LB medium and grown at 37 °C with aeration until reaching an OD600 of 0.5, after which the cell concentration was adjusted to 5 × 10^5 cells per mL. Bacteria were then exposed to different concentrations of nisin or brominated nisin variant in culture tubes at 37 °C and 180 rpm, with untreated bacteria serving as a negative control. At desired time points, 50 μL aliquots were taken, and 10-fold serial dilutions were plated on LB agar plates. After overnight incubation at 37 °C, colonies were counted, and colony-forming units (CFU) per milliliter were calculated. Each experiment was performed in triplicate.

[4] = system: Enterococcus faecium LMG16003 (VRE); assay: MIC, broth microdilution; assay type: cell-based; details: E. faecium; from MIC values
Protocol: as §1

[5] = system: Staphylococcus aureus LMG10147; assay: MIC, broth microdilution; assay type: cell-based; details: S. aureus (text: 'S. aureus' / 'one S. aureus'; by Table 2 LMG10147); from MIC values
Protocol: as §1

[6] = system: Enterococcus faecalis LMG16216 (VRE); assay: MIC, broth microdilution; assay type: cell-based; details: E. faecalis; from MIC values
Protocol: as §1

Row | Compound | MIC [1] [µg/mL] | effect of externally added purified lipid II on antimicrobial activity (inhibition halo) [3] | fold decrease in activity [1] [fold] | fold decrease in activity [5] [fold] | other results
1 | C=C(NC(=O)[C@@H](NC(=O)[C@H](Cc1c[nH]cn1)NC(=O)[C@@H](NC(=O)[C@H](CO)NC(=O)[C@@H]1CS[C@@H](C)[C@H]2NC(=O)[C@H](C)NC(=O)[C@H](NC(=O)[C@H](CCCCN)NC(=O)[C@H](CCSC)NC(=O)[C@H](CC(N)=O)NC(=O)[C@@H]3CS[C@@H](C)[C@@H](NC(=O)[C@H](CCCCN)NC(=O)[C@@H]4CS[C@@H](C)[C@@H](NC(=O)[C@@H]5CSC[C@@H](NC(=O)/C(=C/C)NC(=O)[C@@H](N)Cc6c[nH]c7ccc(Br)cc67)C(=O)N[C@@H]([C@@H](C)CC)C(=O)NC(=C)C(=O)N[C@@H](CC(C)C)C(=O)N5)C(=O)N5CCC[C@H]5C(=O)NCC(=O)N4)C(=O)NCC(=O)N[C@@H](C)C(=O)N[C@@H](CC(C)C)C(=O)N[C@@H](CCSC)C(=O)NCC(=O)N3)[C@H](C)SC[C@H](NC2=O)C(=O)N[C@@H](Cc2c[nH]cn2)C(=O)N1)[C@@H](C)CC)C(C)C)C(=O)N[C@@H](CCCCN)C(=O)O [nisin I1W 5BrTrp] | 0.04 (≈ 0.0114 µM) | decreased the antimicrobial activity | – | – | fold improvement in antimicrobial activity (Bacillus cereus CH-85): 2 fold; fold improvement in antimicrobial activity [2]: 2 fold; killing activity (viability of exponential culture) (B. cereus CH-85; B. cereus CH-85, 2.5 μg/mL (lowest concentration tested)): only slight killing; killing activity (viability of exponential culture) (B. cereus CH-85; B. cereus CH-85, 15 μg/mL): slower bactericidal activity than did nisin
2 | C=C(NC(=O)[C@@H](NC(=O)[C@H](Cc1c[nH]cn1)NC(=O)[C@@H](NC(=O)[C@H](CO)NC(=O)[C@@H]1CS[C@@H](C)[C@H]2NC(=O)[C@H](C)NC(=O)[C@H](NC(=O)[C@H](CCCCN)NC(=O)[C@H](CCSC)NC(=O)[C@H](CC(N)=O)NC(=O)[C@@H]3CS[C@@H](C)[C@@H](NC(=O)[C@H](CCCCN)NC(=O)[C@@H]4CS[C@@H](C)[C@@H](NC(=O)[C@@H]5CSC[C@@H](NC(=O)/C(=C/C)NC(=O)[C@@H](N)Cc6c[nH]c7ccc(O)cc67)C(=O)N[C@@H]([C@@H](C)CC)C(=O)NC(=C)C(=O)N[C@@H](CC(C)C)C(=O)N5)C(=O)N5CCC[C@H]5C(=O)NCC(=O)N4)C(=O)NCC(=O)N[C@@H](C)C(=O)N[C@@H](CC(C)C)C(=O)N[C@@H](CCSC)C(=O)NCC(=O)N3)[C@H](C)SC[C@H](NC2=O)C(=O)N[C@@H](Cc2c[nH]cn2)C(=O)N1)[C@@H](C)CC)C(C)C)C(=O)N[C@@H](CCCCN)C(=O)O [nisin I1W 5OHTrp] | 0.08 (≈ 0.0232 µM) | – | 2 | 2 | fold decrease in activity [4]: 2 fold
3 | C=C(NC(=O)[C@@H](NC(=O)[C@H](Cc1c[nH]cn1)NC(=O)[C@@H](NC(=O)[C@H](CO)NC(=O)[C@@H]1CS[C@@H](C)[C@H]2NC(=O)[C@H](C)NC(=O)[C@H](NC(=O)[C@H](CCCCN)NC(=O)[C@H](CCSC)NC(=O)[C@H](CC(N)=O)NC(=O)[C@@H]3CS[C@@H](C)[C@@H](NC(=O)[C@H](CCCCN)NC(=O)[C@@H]4CS[C@@H](C)[C@@H](NC(=O)[C@@H]5CSC[C@@H](NC(=O)/C(=C/C)NC(=O)[C@@H](N)Cc6c[nH]c7cc(Br)ccc67)C(=O)N[C@@H]([C@@H](C)CC)C(=O)NC(=C)C(=O)N[C@@H](CC(C)C)C(=O)N5)C(=O)N5CCC[C@H]5C(=O)NCC(=O)N4)C(=O)NCC(=O)N[C@@H](C)C(=O)N[C@@H](CC(C)C)C(=O)N[C@@H](CCSC)C(=O)NCC(=O)N3)[C@H](C)SC[C@H](NC2=O)C(=O)N[C@@H](Cc2c[nH]cn2)C(=O)N1)[C@@H](C)CC)C(C)C)C(=O)N[C@@H](CCCCN)C(=O)O [nisin I1W 6BrTrp] | 0.08 (≈ 0.0228 µM) | – | 2 | 2 | fold decrease in activity [6]: 2 fold
4 | C=C(NC(=O)[C@@H](NC(=O)[C@H](Cc1c[nH]cn1)NC(=O)[C@@H](NC(=O)[C@H](CO)NC(=O)[C@@H]1CS[C@@H](C)[C@H]2NC(=O)[C@H](C)NC(=O)[C@H](NC(=O)[C@H](CCCCN)NC(=O)[C@H](CCSC)NC(=O)[C@H](CC(N)=O)NC(=O)[C@@H]3CS[C@@H](C)[C@@H](NC(=O)[C@H](CCCCN)NC(=O)[C@@H]4CS[C@@H](C)[C@@H](NC(=O)[C@@H]5CSC[C@@H](NC(=O)/C(=C/C)NC(=O)[C@@H](N)Cc6c[nH]c7ccccc67)C(=O)N[C@@H]([C@@H](C)CC)C(=O)NC(=C)C(=O)N[C@@H](CC(C)C)C(=O)N5)C(=O)N5CCC[C@H]5C(=O)NCC(=O)N4)C(=O)NCC(=O)N[C@@H](C)C(=O)N[C@@H](CC(C)C)C(=O)N[C@@H](CCSC)C(=O)NCC(=O)N3)[C@H](C)SC[C@H](NC2=O)C(=O)N[C@@H](Cc2c[nH]cn2)C(=O)N1)[C@@H](C)CC)C(C)C)C(=O)N[C@@H](CCCCN)C(=O)O [nisin I1W Trp] | 0.04 (≈ 0.0117 µM) | – | 2 | – | –
5 | daptomycin [reference compound] | – | maintained its antimicrobial activity | – | – | –
